Columns and labels:
R11A [1] = assay: CD of ligand with perfect-match rCAG hairpin R11A; type: binding; conditions: 0.1x PBS
Experimental: FIG. 12. CD titration of LG2 with R11A. The concentration of R11A was 0.5 μM and those of LG2 were X: 0, 1.5, 2.5, 3.5, 4.5, 5.5, 6.5, 8.5, and 11.5 μM. After the addition of LG2 to R11A, the mixtures were incubated at 37° C. for 30 min prior to the acquisition of data at 25° C.
(§1) FIG. 13. CD spectra of LG2 with the (A) mismatched R11U, (B) single-stranded WS and CS, and (C) double-stranded HP containing a single binding-site, as well as that of (D) LG2P with R11A. CD spectra of RNAs (line) and that of the [RNA+ligand] mixtures (dash).
A series of model RNA targets were chosen for binding study (FIG. 11). The R11X series comprised 24 rCXG-repeats (FIG. 11 (A)), which, upon adopting a secondary hairpin structure, provided 11 binding sites for ligands (FIG. 11(B)). R11A contained the perfect-match (A-A), while R11U and R11C contained the respective U—U and C—C mismatches for ligand binding. […]
(§2) The samples were prepared in 0.1× PBS buffer. […] All steady-state fluorescence samples were prepared by mixing ligands with RNA at the indicated concentrations in 0.1× PBS buffer, and annealed by incubation at 90° C. for 5 min followed by a gradual cooling to 37° C. […] Steady-state fluorescence data were collected at 25° C. by Cary Eclipse Fluorescence Spectrometer. […]

R11U [2] = assay: CD of ligand with mismatched R11U; type: binding; conditions: 0.1x PBS
Description: as §1
(§3) A series of model RNA targets were chosen for binding study (FIG. 11). The R11X series comprised 24 rCXG-repeats (FIG. 11 (A)), which, upon adopting a secondary hairpin structure, provided 11 binding sites for ligands (FIG. 11(B)). R11A contained the perfect-match (A-A), while R11U and R11C contained the respective U—U and C—C mismatches for ligand binding. R11G (X=G) was not ascertained since it has shown to be capable of forming G-quadruplex as well as hairpin structures, which could confound the interpretation of the experimental results. Single-stranded RNA targets, WS (Watson Strand) and CS (Crick Strand), with the LG2 binding-site underlined (FIG. 11 (C)), as well as double-stranded hairpin HP containing a single ligand binding-site (FIG. 11 (D)), were also examined. […]
as §2

R11C = assay: CD of ligand with mismatched R11C; type: binding; conditions: 0.1x PBS; data not shown
Description: as §3, with “examined. The samples were prepared by incubating the pre-annealed RNAs with respective ligands in 0.1× PBS buffer (1 mM NaPi, 13.7 mM NaCl, 0.27 mM KCl; pH 7.4) at 37° C.” for “examined.”
as §2

[3] = system: single-stranded WS and CS; assay: CD of ligand with single-stranded RNA targets; type: binding; conditions: 0.1x PBS
Description: as §1, §3, §2

[4] = system: double-stranded HP containing a single binding-site; assay: CD of ligand with hairpin containing a single binding-site; conditions: 0.1x PBS
Description: as §1, §3, §2

R11A [5] = assay: Steady-state fluorescent measurements of ligand with R11A; type: binding; conditions: for fluorescent signals of ligand with R11A in presence of pentamidine: 2.5 uM of pentamidine; for reduction of emission signals upon the addition of R11A: 0.1x PBS
Experimental: (§4) FIG. 14. The effects of ligand orientation (LG2P), mismatched R11U and single-stranded targets (WS+CS). Inset: Fluorescent spectra of the corresponding samples after addition of 2.5 μM of pentamidine.
To further corroborate the UV-Vis and CD findings, we measured the fluorescent signals of ligands with and without RNA targets following an excitation at 330 nm (λmax of E-base). We observed a significant fluorescent quenching of LG3 compared to that of LG1 and LG2. Such a drastic reduction in the fluorescent signals could be due to photo-induced electron transfer quenching, which is expected to be most efficient for LG3 since the fluorophore (E) is stacked between two other J-bases. […] With all three ligands, the emission signals were further reduced upon the addition of R11A, but most dramatically with LG2, 60% reduction with LG2 as compared to 35 and 33% with LG1 and LG3, respectively. We observed a similar fluorescent quenching pattern upon the incubation of LG2 with R11U, [WS+CS], HP, and LG2P with R11A (FIG. 14)—although less dramatic as compared to that of LG2 with R11A. […] To test the hypothesis that the nonspecific binding of ligand to RNA can lead to fluorescent quenching, we incubated the respective RNA targets with pentamidine prior to adding LG2 and vice versa.
The samples were prepared in 0.1× PBS buffer. All spectra represent an average of at least fifteen scans collected at 100 nm/min rate between 200 and 375 nm, in a 1-cm path-length cuvette at 25° C. CD spectrum from buffer solution was subtracted from the sample spectra, which were then smoothed via a five-point adjacent averaging algorithm. Steady-State fluorescent measurements. All steady-state fluorescence samples were prepared by mixing ligands with RNA at the indicated concentrations in 0.1× PBS buffer, and annealed by incubation at 90° C. for 5 min followed by a gradual cooling to 37° C. The samples were incubated at 37° C. for 1 hr before the measurements. Steady-state fluorescence data were collected at 25° C. by Cary Eclipse Fluorescence Spectrometer. (εex=330 nm, εem=340-600 nm) with slit size.

R11U [6] = assay: Steady-state fluorescent measurements of ligand with R11U; type: binding
Experimental: as §4
(§5) To further corroborate the UV-Vis and CD findings, we measured the fluorescent signals of ligands with and without RNA targets following an excitation at 330 nm (λmax of E-base). We observed a significant fluorescent quenching of LG3 compared to that of LG1 and LG2. Such a drastic reduction in the fluorescent signals could be due to photo-induced electron transfer quenching, which is expected to be most efficient for LG3 since the fluorophore (E) is stacked between two other J-bases. […] With all three ligands, the emission signals were further reduced upon the addition of R11A, but most dramatically with LG2, 60% reduction with LG2 as compared to 35 and 33% with LG1 and LG3, respectively. […]
as §2

[WS+CS] = Steady-state fluorescent measurements of ligand with single strands; type: binding
Experimental: as §4, §5, §2

HP = assay: Steady-state fluorescent measurements of ligand with HP; type: binding; conditions: excitation at 330 nm
Description: To further corroborate the UV-Vis and CD findings, we measured the fluorescent signals of ligands with and without RNA targets following an excitation at 330 nm (λmax of E-base). We observed a significant fluorescent quenching of LG3 compared to that of LG1 and LG2. Such a drastic reduction in the fluorescent signals could be due to photo-induced electron transfer quenching, which is expected to be most efficient for LG3 since the fluorophore (E) is stacked between two other J-bases. […] With all three ligands, the emission signals were further reduced upon the addition of R11A, but most dramatically with LG2, 60% reduction with LG2 as compared to 35 and 33% with LG1 and LG3, respectively. We observed a similar fluorescent quenching pattern upon the incubation of LG2 with R11U, [WS+CS], HP, and LG2P with R11A (FIG. 14)—although less dramatic as compared to that of LG2 with R11A. […]
as §2

R11A [7] = assay: NMR titration of ligand with R11A; type: binding; conditions: R11A 0.1 mM, 0.1x PBS
Experimental: FIG. 15. NMR titration of LG2 with R11A. The concentration of R11A was 0.1 mM. Aliquots of LG2 at the indicated molar ratios were added to R11A and incubated at 37° C. for 15 min prior to data acquisition. Solvent-exchangeable protons are indicated by dashed lines, and nonexchangeable protons by vertical solid lines.
To gain insight into the binding mode of LG2, we performed a series of multinuclear and multidimensional NMR experiments with LG2, R11A, and in combination. The samples were prepared in the same 0.1× PBS buffer as before, containing a 9:1 volume ratio of H2O:D2O The NOESY data were collected at 300, 200, and 100 ms mixing times to obtain proton-proton distance, while COSY experiments were performed to map the proton spin-system of each residue. The expectation was that H-bonding interactions between LG2 and R11A would result in line-broadening and downfield chemical shift of the imino proton signals of the canonical G-C/C-G pairs due to base-pair opening, and in an emergence of a new set of imino proton signals due to the formation of H-bonds between ligand and RNA. […] Variable-temperature measurements further supported this chemical shift assignment, showing a gradual decay in peak intensity with increasing temperature while that of the non-exchangeable protons remained fairly constant. Partial assignments of the nucleobase protons were made by NOESY experiments. […]

H-EFI-Lys-NH2 [LG2]
differential in CD amplitude with R11A, among the ligand series (R11A [1]; signals at ~270 nm): largest differential in CD amplitude
change in CD signals after incubation with mismatched R11U (R11U [2]): no significant differences in the CD signals
change in CD signals after incubation with mismatched R11C (R11C): no significant differences in the CD signals
change in CD signals after incubation with single-stranded WS and CS [3]: no significant differences in the CD signals
change in CD signals after incubation with HP [4]: no significant differences in the CD signals
fluorescent signals of ligand with R11A in presence of pentamidine (R11A [5]): remained suppressed
reduction of emission signals upon the addition of R11A (R11A [5]; excitation at 330 nm): 60%
fluorescent signals of ligand with R11U in presence of pentamidine (R11U [6]; 2.5 uM of pentamidine): fully recovered
fluorescent quenching with R11U compared to that of LG2 with R11A (R11U [6]; excitation at 330 nm): less dramatic
fluorescent signals of ligand with [WS+CS] in presence of pentamidine ([WS+CS]; 2.5 uM of pentamidine): fully recovered
fluorescent quenching with [WS+CS] compared to that of LG2 with R11A ([WS+CS]; excitation at 330 nm): less dramatic
fluorescent quenching with HP compared to that of LG2 with R11A (HP): less dramatic
new imino proton signals in the 10-20 ppm regimes (H-bond formation between ligand and RNA) (R11A [7]): did not observe any new imino proton signals
imino proton signal of R11A upon the addition of ligand (R11A [7]; 9:1 H2O:D2O): gradually broadened and downfield-shifted

H-IEF-Lys-NH2 [LG3]
reduction of emission signals upon the addition of R11A (R11A [5]; excitation at 330 nm): 33%

H-FIE-Lys-NH2 [LG1]
reduction of emission signals upon the addition of R11A (R11A [5]; excitation at 330 nm): 35%

H-IPE-Lys-NH2 [LG2P]
change in CD signals after incubation with R11A (R11A [1]): no significant differences in the CD signals
fluorescent signals of ligand with R11A in presence of pentamidine (R11A [5]): fully recovered
fluorescent quenching with R11A compared to that of LG2 with R11A (R11A [5]; excitation at 330 nm): less dramatic

From patent US20200318195A1, “Bivalent Nucleic Acid Ligands and Uses Therefor” (Carnegie Mellon University, priority 2017, published 2020)
